Data: patent US20150157584A1, “INHIBITORS OF HIPPO-YAP SIGNALING PATHWAY” (The Regents of the University of California, priority 2012, published 2015)
Read-outs that look alike come from different tables or passages of the source. Residues, ends and D or L forms follow the SMILES beside them. *: point of attachment. Cbz = O=C(OCc1ccccc1)*

Tests used:
YAP/TAZ [1] = experiment: immunoblotting / phos-tag gels of YAP/TAZ phosphorylation in cultured cell lines; format: cell-based, human; conditions: for YAP/TAZ phosphorylation by BSA preparations: serum-starved HEK293A, 1 or 10 mg/ml BSA; for YAP phosphorylation by PDE inhibitors: ibudilast 100 μM, IBMX 100 μM, rolipram 50 μM, theophylline 1 mM, 1 hr; for YAP dephosphorylation, different doses: different doses of LPA, S1P, LPC or PA for 1 h; for YAP/TAZ activation by growth factors: EGF 50 ng/ml, PDGF 50 ng/ml, insulin 200 nM, FGF 10 ng/ml
Procedure: Immunoblotting was performed using standard protocol. […] The phos-tag reagents were purchased from Wako Chemicals, and gels containing phos-tag were prepared according to manufacture's instructions. YAP proteins can be separated into multiple bands in the presence of phos-tag depending on differential phosphorylation levels, with phosphorylated proteins run migrate slower.
(§1) Immunoblotting was performed using standard protocol. Antibodies for pYAP (S127), YAP, TAZ (V386), pCREB, CREB, pMLC2 (S19), pMLC2 (T18/S19), MST1, MST2, and Lats1 were from Cell Signaling Technology. Lats2 antibody was from Bethyl laboratories. HA-HRP, GFP, and MLC2 antibodies were from Santa Cruz biotechnology. Tubulin, HSP90 and Flag-HRP were purchased from Sigma Aldrich. PKA antibody was obtained from BD biosciences. GAPDH antibody was a gift from Dr. Yan Luo. Yki antibody was a gift from Dr. Kenneth Irvine. The phos-tag reagents were purchased from Wako Chemicals, and gels containing phos-tag and MnC12 were prepared according to manufacturer's instructions. YAP proteins can be separated into multiple bands on phos-tag gels, with the phosphorylated form of YAP proteins migrating at a slower speed.

YAP/TAZ [2] = experiment: immunoblotting of YAP/TAZ phosphorylation in mouse cells (primary hepatocytes, 3T3-L1); format: cell-based
Procedure: (§2) Immunoblotting was performed using standard protocol. Antibodies for pYAP (S127), pYAP(S381/384), pMST1/2, TAZ, pERK, ERK1/2, Lats1, MST1, pAKT (S473), pS6K, S6K were from Cell Signaling, antibodies for YAP (H-125), CTGF, Cyr61, Gq/11, G13 and 14-3-3θ were from Santa Cruz, TEAD1 antibody was from BD biosciences, pTAZ (S89) antibody was in-house raised, GAPDH antibody was a gift from Dr. Yan Luo. The phos-tag reagents were purchased from Wako Chemicals, and gels containing phos-tag were prepared according to manufacture's instructions. YAP proteins can be separated into multiple bands in the presence of phos-tag depending on differential phosphorylation levels, with phosphorylated proteins run migrate slower.
as §1

YAP = format: cell-based, human
3T3-L1 cells = experiment: adipogenesis of 3T3-L1 cells (oil red staining); format: cell-based, mouse; conditions: 3T3-L1 with insulin, dexamethasone, troglitazone; IBMX 250 μM; KT5720 5 μM
Procedure: Adipogenesis. Murine 3T3-L1 cells were maintained in DMEM medium containing 10% calf serum (Hyclone). To initiate adipocyte differentiation, confluent 3T3-L1 cells switched into FBS containing DMEM medium; in addition, insulin, dexamethasone, troglitazone (Tro) were added; in selected samples, IBMX (250 μM) or forskolin (100 μM) were used to increase cAMP and PKA activity. For experiments using KT5720, 3T3-L1 cells were pre-treated with KT5720 (5 μM) overnight in advance and fresh KT5720 was added when adipogenesis was initiated. Two days later, medium was changed into DMEM containing 10% FBS and insulin. And after another two days, cells were incubated in DMEM with FBS. Cells were typically harvested on day 6 depending on the formation and maturation of lipid droplets. Cells were then subjected to RNA extraction or oil red (Sigma Aldrich) staining according to manufacturer's instructions.

CTGF = experiment: expression of YAP/TAZ target gene CTGF; format: cell-based, human; conditions: HEK293A
Procedure: as §2
Following various treatments, cells were washed with cold phosphate-buffered saline and subjected to RNA extraction using an RNeasy Plus mini kit (Qiagen). […] Complementary DNA was then diluted and used for quantification (with β-actin gene as a control) by real-time PCR, which was performed using KAPA SYBR FAST qPCR master mix (Kapa Biosystems) and the 7300 real-time PCR system (Applied Biosystems). […]
RNA extraction, reverse transcription and real-time PCR. […] After dilution, cDNA levels were quantified by real-time PCR using KAPA SYBR FAST qPCR master mix (Kapa Biosystems) and the 7300 real-time PCR system (Applied Biosystems). […]

Lats1 = Lats1 immunoprecipitation kinase assay with GST-YAP substrate; format: cell-based, human; conditions: HEK293A; Ki16425 10 μM 30 min; C3 2 μg/ml 4 h
Procedure: Lats1 or HA-Lats2 kinase assays were performed similarly but using GST-YAP as substrates in the absence of [γ-^32P] ATP. The phosphorylation of GST-YAP at S127 was determined by immunoblotting using pYAP antibody.
Cells were lysed using mild lysis buffer (50 mM HEPES at pH 7.5, 150 mM NaCl, 1 mM EDTA, 1% NP-40, 10 mM pyrophosphate, 10 mM glycerophosphate, 50 mM NaF, 1.5 mM Na3VO4, protease inhibitor cocktail [Roche], 1 mM PMSF). Cell lysates were cleared and used for immunoprecipitation. Lats1 antibody (Cell Signaling Technology) was mixed with cell lysates for 1 hr at 4° C., and then protein A agarose beads were added in for 1 hr. After four washes with lysis buffer, beads were washed once with wash buffer (40 mM HEPES, 200 mM NaCl) and once with kinase assay buffer (30 mM HEPES, 50 mM potassium acetate, 5 mM MgCl2). The immunoprecipitated Lats1 was then subjected to a kinase assay in the presence of 500 μM cold ATP, 10 μCi [γ-32P] ATP, and 1 μg of GST-YAP expressed and purified from Escherichia coli as substrate. The reaction mixtures were incubated for 30 min at 30° C., terminated with SDS sample buffer, and subjected to SDS-PAGE and immunoblotting.

[3] = 3T3-L1, 10 μM forskolin, 100 μM IBMX or 5 μM KT5720, 1 hr
[4] = HEK293A pre-treated 30 min (1 μM Torin1, 10 μM U0126, 10 μM SB253580, 10 nM wortmannin), then 10% FBS 1 h

Compound: fatty acid-free BSA: fatty acid-free BSA preparation
- YAP/TAZ phosphorylation by BSA preparations (YAP/TAZ [1]; 1 h): no activity

Compound: glucagon: ligand known to activate PKA
- YAP phosphorylation (YAP/TAZ [2]; primary hepatocytes isolated from mice, glucagon): increased
- YAP phosphorylation (YAP/TAZ [2]; primary mouse hepatocytes, 2 μM glucagon, 1 h): increased

Compound: CC(C)C[C@@H](C=O)NC(=O)[C@H](CC(C)C)NC(=O)[C@H](CC(C)C)NC(=O)OCc1ccccc1 [MG132] (Cbz-Leu-Leu-Leu-aldehyde)
- YAP protein levels under various doses of C108 with proteasome inhibitor (YAP): mostly maintained

Compound: CC(C)Cn1c(=O)n(C)c(=O)c2[nH]cnc21 [IBMX]
- YAP phosphorylation by PDE inhibitors (YAP/TAZ [1]; MDA-MB-231): induced YAP phosphorylation
- adipogenesis (3T3-L1 cells): induced
- TAZ protein level (YAP/TAZ [2]; [3]): decreased
- YAP phosphorylation (YAP/TAZ [2]; [3]): induced

Compound: Oc1cc2c(cc1O)[C@H]1c3ccccc3CN[C@@H]1CC2 (racemic) [Dihydrexidine]
- YAP phosphorylation (YAP/TAZ [1]; U2OS cells, 10 μM, 1 h): strong increase

Compound: COC[C@H]1OC(=O)c2coc3c2[C@@]1(C)C1=C(C3=O)[C@@H]2CCC(=O)[C@@]2(C)C[C@H]1OC(C)=O [wortmannin]
- effect on the ability of FBS to dephosphorylate YAP/TAZ (YAP/TAZ [1]; [4]): no effect

Compound: O=C(Nc1ncnc2c1ncn2[C@@H]1O[C@@H]2COP(=O)(O)O[C@H]2[C@H]1O)c1ccccc1 [b-Bnz-cAMP]
- YAP phosphorylation by PKA or Epac selective activators (YAP/TAZ [1]; HEK293A, 1 h): dramatically increased

Compound: Fraction V BSA: BSA prepared by ethanol precipitation
- YAP/TAZ phosphorylation by BSA preparations (YAP/TAZ [1]; 1 h): no activity

Compound: COc1ccc(C2CNC(=O)C2)cc1OC1CCCC1 (stereo not drawn) [rolipram]
- YAP phosphorylation by PDE inhibitors (YAP/TAZ [1]; MDA-MB-231): induced YAP phosphorylation

Compound: CCCCCCCCCCCCC/C=C/[C@@H](O)[C@@H](N)COP(=O)(O)O [S1P, sphingosine 1-phosphate]
- YAP/TAZ dephosphorylation, time course (YAP/TAZ [1]; HEK293A, 1 μM for indicated times): potently induced YAP/TAZ dephosphorylation
- YAP dephosphorylation, different doses (YAP/TAZ [1]; HEK293A): potently induced
- expression of CTGF (CTGF): induced

Compound: CCC(=O)N1CCN(c2ccc(-n3c(=O)ccc4cnc5ccc(-c6cnc7ccccc7c6)cc5c43)cc2C(F)(F)F)CC1 [torin]
- effect on the ability of FBS to dephosphorylate YAP/TAZ (YAP/TAZ [1]; [4]): no effect

Compound: phosphatidic acid [PA]
- dephosphorylation of YAP/TAZ by phospholipids (YAP/TAZ [1]; HEK293A, 100 μM lipid): strongly induced dephosphorylation
- concentration needed to induce YAP dephosphorylation (YAP/TAZ [1]; HEK293A, 1 h): 100 µM
- YAP dephosphorylation, different doses (YAP/TAZ [1]; HEK293A): much higher concentrations
- potency relative to LPA (times less potent) (YAP/TAZ [1]; YAP dephosphorylation, HEK293A): 1,000 times

Compound: Cc1noc(-c2ccc(CSCCC(=O)O)cc2)c1NC(=O)OC(C)c1ccccc1Cl (stereo not drawn) [Ki16425]
- effect on LPA-induced dephosphorylation of YAP/TAZ (YAP/TAZ [1]; HEK293A, Ki16425 10 μM, 30 min): blocked
- effect on S1P-induced dephosphorylation of YAP/TAZ (YAP/TAZ [1]; HEK293A, Ki16425 10 μM, 30 min): not
- effect on the ability of serum to repress YAP/TAZ phosphorylation (YAP/TAZ [1]; HEK293A, Ki16425 10 μM, particularly at 0.2% serum): partially inhibited
- effect on Lats1 inhibition by LPA, S1P, and serum (Lats1): effectively blocked

Compound: C/C1=C/C(=O)O[C@@H]2C[C@@H](CC[C@H](C)/C=C\CC1)O[C@@](O)([C@@H]1CSC(=O)N1)C2 [latrunculin B]
- effect on the effects of LPA or S1P on YAP (YAP/TAZ [1]; HEK293A 1 μg/ml LatB 30 min, MCF10A localization): blocked

Compound: CCCCCCOC(=O)[C@]1(O)C[C@@H]2O[C@@]1(C)n1c3ccccc3c3c4c(c5c6ccccc6n2c5c31)C(=O)NC4 [KT5720]
- YAP phosphorylation (YAP/TAZ [1]; MDA-MB-231, KT5720 5 μM): decreased
- effect on forskolin- and epinephrine-induced YAP phosphorylation (YAP/TAZ [1]; MDA-MB-231, KT5720 5 μM 30 min, then 10 μM epinephrine or forskolin 1 hr): largely blocked
- adipogenesis (3T3-L1 cells): inhibited
- TAZ protein level (YAP/TAZ [2]; [3]): increased
- YAP phosphorylation (YAP/TAZ [2]; [3]): repressed
- effect on glucagon-induced YAP phosphorylation (YAP/TAZ [2]; primary hepatocytes isolated from mice, KT5720): abolished

Compound: C[S+]([O-])c1ccc(-c2nc(-c3ccc(F)cc3)c(-c3ccncc3)[nH]2)cc1 (stereo not drawn) [SB253580]
- effect on the ability of FBS to dephosphorylate YAP/TAZ (YAP/TAZ [1]; [4]): no effect

Compound: CO[C@@H]1[C@@H]2OP(=O)(O)OC[C@H]2O[C@H]1n1c(Sc2ccc(Cl)cc2)nc2c(N)ncnc21 [8-CPT-2′-O-Me-cAMP]
- YAP phosphorylation by PKA or Epac selective activators (YAP/TAZ [1]; HEK293A, 1 h): less dramatic

Compound: N#CC(=C(/N)Sc1ccccc1N)/C(C#N)=C(\N)Sc1ccccc1N [U0126]
- effect on the ability of FBS to dephosphorylate YAP/TAZ (YAP/TAZ [1]): no effect

Compound: Cn1c(=O)c2[nH]cnc2n(C)c1=O [theophylline]
- YAP phosphorylation by PDE inhibitors (YAP/TAZ [1]; MDA-MB-231): induced YAP phosphorylation

Compound: PDGF
- YAP/TAZ activation by growth factors (YAP/TAZ [1]; HEK293A): not involved

Compound: EGF: growth factor tested
- YAP/TAZ activation by growth factors (YAP/TAZ [1]; HEK293A): not involved

Compound: insulin: growth factor tested
- YAP/TAZ activation by growth factors (YAP/TAZ [1]; HEK293A): not involved
